# Laboratory results taken from PMC8698302, “An Antibacterial Peptide with High Resistance to Trypsin Obtained by Substituting D-Amino Acids for Trypsin Cleavage Sites” (Antibiotics, 2021).
# Like-named read-outs stand apart in the source and are kept apart here.
# Columns and labels:
# Assay in all cases: Antimicrobial susceptibility test of clinical isolated strains
# Assay type in all cases: cell-based
# Escherichia coli QY = details: for Antimicrobial susceptibility test result (category): according to CLSI 2015 guidelines
# Method: (§1) Table S1. Antimicrobial susceptibility test of clinical isolated strains used in this study (MIC, μg/mL).
# (§2) 1Antimicrobial susceptibility test results were determined according to CLSI 2015 guidelines, where "R" stands for drug resistance,
# (§3) "I" stands for intermediate, "S" stands for susceptible. […]
# Escherichia coli S1N1 = details: for Antimicrobial susceptibility test result (category): according to CLSI 2015 guidelines
# Method: as §1, §2, §3
# Escherichia coli SN5 = details: for Antimicrobial susceptibility test result (category): according to CLSI 2015 guidelines
# Method: as §1, §2, §3
# Escherichia coli w122 = details: for Antimicrobial susceptibility test result (category): according to CLSI 2015 guidelines
# Method: as §1, §2, §3
# Escherichia coli w123 = details: for Antimicrobial susceptibility test result (category): according to CLSI 2015 guidelines
# Method: as §1, §2, §3
# [1] = test system: Methicillin-resistant Staphylococcus aureus HP; details: for MIC: Staphylococcus aureus, antibiotic susceptibility, CLSI 2015 guidelines; for Antimicrobial susceptibility test result (category): according to CLSI 2015 guidelines
# Method: as §1, §2, §3
# Shigella flexneri QY1 = details: for Antimicrobial susceptibility test result (category): according to CLSI 2015 guidelines
# Method: as §1, §2, §3
# Escherichia coli w124 = details: for Antimicrobial susceptibility test result (category): according to CLSI 2015 guidelines
# From the text: as §1, §3
# Escherichia coli w136 = details: for Antimicrobial susceptibility test result (category): according to CLSI 2015 guidelines
# From the text: as §1, §3
# [2] = Escherichia coli, S1N1, antibiotic susceptibility, CLSI 2015 guidelines, read-out: MIC
# [3] = Escherichia coli, SN5, antibiotic susceptibility, CLSI 2015 guidelines, read-out: MIC
# [4] = Escherichia coli, W122, antibiotic susceptibility, CLSI 2015 guidelines, read-out: MIC
# [5] = Escherichia coli, W123, antibiotic susceptibility, CLSI 2015 guidelines, read-out: MIC
# [6] = antibiotic susceptibility, CLSI 2015 guidelines
compound,measurement,setting,value
CO[C@H]1/C=C/O[C@@]2(C)Oc3c(C)c(O)c4c(O)c(c(/C=N/N5CCN(C)CC5)c(O)c4c3C2=O)NC(=O)/C(C)=C\C=C\[C@H](C)[C@H](O)[C@@H](C)[C@@H](O)[C@@H](C)[C@H](OC(C)=O)[C@@H]1C [Rifampicin],MIC,"Escherichia coli QY; Escherichia coli, antibiotic susceptibility, CLSI 2015 guidelines, read-out: MIC",4 µg/mL
same,Antimicrobial susceptibility test result (category),Escherichia coli QY,S
same,MIC,Escherichia coli S1N1; [2],2 µg/mL
same,Antimicrobial susceptibility test result (category),Escherichia coli S1N1,S
same,MIC,Escherichia coli SN5; [3],1 µg/mL
same,Antimicrobial susceptibility test result (category),Escherichia coli SN5,S
same,MIC,Escherichia coli w122; [4],4 µg/mL
same,Antimicrobial susceptibility test result (category),Escherichia coli w122,S
same,MIC,Escherichia coli w123; [5],4 µg/mL
same,Antimicrobial susceptibility test result (category),Escherichia coli w123,S
same,MIC,[1],8 µg/mL
same,Antimicrobial susceptibility test result (category),[1],R
same,MIC,"Shigella flexneri QY1; Shigella flexneri, QY1",2 µg/mL
same,Antimicrobial susceptibility test result (category),Shigella flexneri QY1,S
same,MIC,"Escherichia coli w124; Escherichia coli, W124, antibiotic susceptibility, CLSI 2015 guidelines, read-out: MIC",4 µg/mL
same,Antimicrobial susceptibility test result (category),Escherichia coli w124,S
same,MIC,"Escherichia coli w136; Escherichia coli, W136, antibiotic susceptibility, CLSI 2015 guidelines, read-out: MIC",64 µg/mL
same,Antimicrobial susceptibility test result (category),Escherichia coli w136,R
Cc1noc(NS(=O)(=O)c2ccc(N)cc2)c1C [Sulfafurazole],MIC,Escherichia coli QY; Escherichia coli,512 µg/mL
same,Antimicrobial susceptibility test result (category),Escherichia coli QY,R
same,MIC,"Escherichia coli S1N1; Escherichia coli, S1N1",512 µg/mL
same,Antimicrobial susceptibility test result (category),Escherichia coli S1N1,R
same,MIC,"Escherichia coli SN5; Escherichia coli, SN5",> 512 µg/mL
same,Antimicrobial susceptibility test result (category),Escherichia coli SN5,R
same,MIC,"Escherichia coli w122; Escherichia coli, W122",512 µg/mL
same,Antimicrobial susceptibility test result (category),Escherichia coli w122,R
same,MIC,"Escherichia coli w123; Escherichia coli, W123",512 µg/mL
same,Antimicrobial susceptibility test result (category),Escherichia coli w123,R
same,MIC,"Shigella flexneri QY1; Shigella flexneri, QY1",> 512 µg/mL
same,Antimicrobial susceptibility test result (category),Shigella flexneri QY1,R
same,MIC,"Escherichia coli w124; Escherichia coli, W124",512 µg/mL
same,Antimicrobial susceptibility test result (category),Escherichia coli w124,R
same,MIC,"Escherichia coli w136; Escherichia coli, W136",512 µg/mL
same,Antimicrobial susceptibility test result (category),Escherichia coli w136,R
CN(C)[C@@H]1C(O)=C(C(N)=O)C(=O)[C@@]2(O)C(O)=C3C(=O)c4c(O)cccc4[C@@](C)(O)[C@H]3C[C@@H]12 [Tetracycline],Antimicrobial susceptibility test result (category),Escherichia coli QY,R
same,MIC,Escherichia coli S1N1; [2],32 µg/mL
same,Antimicrobial susceptibility test result (category),Escherichia coli S1N1,R
same,MIC,Escherichia coli SN5; [3],64 µg/mL
same,Antimicrobial susceptibility test result (category),Escherichia coli SN5,R
same,MIC,Escherichia coli w122; [4],32 µg/mL
same,Antimicrobial susceptibility test result (category),Escherichia coli w122,R
same,MIC,Escherichia coli w123; [5],32 µg/mL
same,Antimicrobial susceptibility test result (category),Escherichia coli w123,R
same,MIC,[1],32 µg/mL
same,Antimicrobial susceptibility test result (category),[1],R
same,MIC,"Shigella flexneri QY1; Shigella flexneri, QY1",32 µg/mL
same,Antimicrobial susceptibility test result (category),Shigella flexneri QY1,R
same,Antimicrobial susceptibility test result (category),Escherichia coli w124,R
same,Antimicrobial susceptibility test result (category),Escherichia coli w136,R
COc1cccc(OC)c1C(=O)N[C@@H]1C(=O)N2[C@@H]1SC(C)(C)[C@@H]2C(=O)O [methicillin],MIC,Escherichia coli S1N1; [2],128 µg/mL
same,Antimicrobial susceptibility test result (category),Escherichia coli S1N1,R
same,MIC,Escherichia coli SN5; [3],64 µg/mL
same,Antimicrobial susceptibility test result (category),Escherichia coli SN5,R
same,MIC,Escherichia coli w122; [4],64 µg/mL
same,Antimicrobial susceptibility test result (category),Escherichia coli w122,R
same,MIC,Escherichia coli w123; [5],128 µg/mL
same,Antimicrobial susceptibility test result (category),Escherichia coli w123,R
same,MIC,[1],128 µg/mL
same,Antimicrobial susceptibility test result (category),[1],R
same,MIC,"Shigella flexneri QY1; Shigella flexneri, QY1",32 µg/mL
same,Antimicrobial susceptibility test result (category),Shigella flexneri QY1,R
PolymixinB,Antimicrobial susceptibility test result (category),Escherichia coli QY,S
same,MIC,Escherichia coli QY; [6],1 µg/mL
same,Antimicrobial susceptibility test result (category),Escherichia coli S1N1,S
same,MIC,Escherichia coli S1N1; [6],0.5 µg/mL
same,Antimicrobial susceptibility test result (category),Escherichia coli SN5,S
same,MIC,Escherichia coli SN5; [6],0.5 µg/mL
same,Antimicrobial susceptibility test result (category),Escherichia coli w122,S
same,MIC,Escherichia coli w122; [6],0.5 µg/mL
same,Antimicrobial susceptibility test result (category),Escherichia coli w123,S
same,MIC,Escherichia coli w123; [6],0.5 µg/mL
same,Antimicrobial susceptibility test result (category),Shigella flexneri QY1,S
same,MIC,Shigella flexneri QY1; [6],0.5 µg/mL
same,Antimicrobial susceptibility test result (category),Escherichia coli w124,S
same,MIC,Escherichia coli w124; [6],0.5 µg/mL
same,Antimicrobial susceptibility test result (category),Escherichia coli w136,R
same,MIC,Escherichia coli w136; [6],8 µg/mL
